Laboratory results taken from ChEMBL document CHEMBL4325928, “Structure-Property Basis for Solving Transporter-Mediated Efflux and Pan-Genotypic Inhibition in HCV NS5B Inhibitors” (ACS Med Chem Lett, 2018).

Legend:
[1] = Stability in rat liver microsomes assessed as parent compound remaining; format: ADME, Microsome
[2] = Stability in human liver microsomes assessed as parent compound remaining; format: ADME, Microsome
[3] = Efflux ratio of permeability from basolateral side to apical side over apical side to basolateral side in human Caco2 cells expressing p-gp at 3 uM incubated for 2 hrs by LC-MS/MS analysis; format: ADME, cell-based; details: Caco-2
[4] = Permeability of the compound at pH 7.4 by PAMPA; format: ADME; details: read-out: permeability
[5] = Permeability across basolateral side to apical side in human Caco2 cells expressing p-gp at 3 uM incubated for 2 hrs by LC-MS/MS analysis; format: ADME, cell-based; details: Caco-2, read-out: permeability
[6] = Permeability across apical side to basolateral side in human Caco2 cells expressing p-gp at 3 uM incubated for 2 hrs by LC-MS/MS analysis; format: ADME, cell-based; details: Caco-2, read-out: permeability
[7] = Half life in cannulated Sprague-Dawley rat at 2 mg/kg, iv administered as 10 mins infusion by LC-MS/MS analysis; format: ADME, organism-based; details: in vivo
[8] = Volume of distribution at steady state in cannulated Sprague-Dawley rat at 2 mg/kg, iv administered as 10 mins infusion by LC-MS/MS analysis; format: ADME, organism-based; details: in vivo, read-out: Vdss
[9] = Oral bioavailability in cannulated Sprague-Dawley rat at 6 mg/kg administered via gastric gavage by LC-MS/MS analysis; format: ADME, organism-based; details: in vivo
[10] = AUC in cannulated Sprague-Dawley rat at 6 mg/kg, po administered via gastric gavage by LC-MS/MS analysis; format: ADME, organism-based; details: in vivo
[11] = Clearance in cannulated Sprague-Dawley rat at 2 mg/kg, iv administered as 10 mins infusion by LC-MS/MS analysis; format: ADME, organism-based; details: in vivo
[12] = Half life in human liver microsomes; format: ADME, Microsome
[13] = Cmax in cannulated Sprague-Dawley rat at 6 mg/kg, po administered via gastric gavage by LC-MS/MS analysis; format: ADME, organism-based; set-up: dose 6 mg/kg, route oral; details: in vivo
[14] = Drug level in cannulated Sprague-Dawley rat liver at 6 mg/kg, po administered via gastric gavage measured after 24 hrs by LC-MS/MS analysis; format: ADME, organism-based; details: read-out: Drug uptake
[15] = Tmax in cannulated Sprague-Dawley rat at 6 mg/kg, po administered via gastric gavage by LC-MS/MS analysis; format: ADME, organism-based; details: in vivo
[16] = Drug level in cannulated Sprague-Dawley rat liver at 6 mg/kg, po administered via gastric gavage measured after 5 hrs by LC-MS/MS analysis; format: ADME, organism-based; details: read-out: Drug uptake
[17] = Half life in rat liver microsomes; format: ADME, Microsome
[18] = Drug level in cannulated Sprague-Dawley rat plasma at 6 mg/kg, po administered via gastric gavage measured after 5 hrs by LC-MS/MS analysis; format: ADME, organism-based

Compound	efflux ratio at 2 h, 3 µM [3]	Papp [4] [×10⁻⁶ cm/s]	Papp B→A at 2 h, 3 µM [5] [×10⁻⁶ cm/s]	Papp A→B at 2 h, 3 µM [6] [×10⁻⁶ cm/s]	other results
CNC(=O)c1c(-c2ccc(F)cc2)oc2cc(N(CCO)S(C)(=O)=O)c(-c3cccc(C(=O)NC4(c5ccccc5)CC4)c3)cc12	–	–	–	–	Stability [1]: 0.6%; Stability [2]: 63%
CCN(C(=O)C(F)(F)F)c1cc2oc(-c3ccc(F)cc3)c(C(=O)NC)c2cc1-c1ccc(OC)c(C(=O)NC2(c3ncccn3)CC2)c1	2.7	83.5	11.5	4.2	–
CCNc1cc2oc(-c3ccc(F)cc3)c(C(=O)NC)c2cc1-c1ccc(OC)c(C(=O)NC2(c3ncccn3)CC2)c1	0.8	72	17.6	23.2	half-life [7]: 4.7 h; Vd [8]: 4 L/kg; bioavailability [9]: 57%; AUC [10]: 7.8 µM·h; clearance [11]: 11 mL/min/kg; half-life [12]: 0.6 h; Cmax [13]: 776 nM; concentration at 24 h [14]: 391 nM; Tmax [15]: 5.3 h; concentration at 5 h [16]: 5260 nM; half-life [17]: 0.65 h
CCN(c1cc2oc(-c3ccc(F)cc3)c(C(=O)NC)c2cc1-c1cc(C)c(OC)c(C(=O)NC2(c3ncccn3)CC2)c1)S(C)(=O)=O	9.8	40.9	32.2	3.3	–
CCN(C(=O)OC)c1cc2oc(-c3ccc(F)cc3)c(C(=O)NC)c2cc1-c1ccc(OC)c(C(=O)NC2(c3ncccn3)CC2)c1	9.6	66	23.2	2.4	–
CNC(=O)c1c(-c2ccc(F)cc2)oc2cc(N(CCO)S(C)(=O)=O)c(-c3cccc(C(=O)NC4(c5ccccn5)CC4)c3)cc12	–	–	–	–	Stability [1]: 8.7%; Stability [2]: 99%
CCN(c1cc2oc(-c3ccc(F)cc3)c(C(=O)NC)c2cc1-c1cc(F)c(OC)c(C(=O)NC2(c3ncccn3)CC2)c1)S(C)(=O)=O	13.8	65.9	40.6	2.9	–
CCN(c1cc2oc(-c3ccc(F)cc3)c(C(=O)NC)c2cc1-c1cc(F)c(F)c(C(=O)NC2(c3ncccn3)CC2)c1)S(C)(=O)=O	7.8	73.1	62.3	7.9	–
CCN(c1cc2oc(-c3ccc(F)cc3)c(C(=O)NC)c2cc1-c1ccc(OC)c(C(=O)NC2(c3ncccn3)CC2)c1)S(C)(=O)=O	> 12.4	48.7	18.5	< 1.5	half-life [7]: 1.6 h; Vd [8]: 14 L/kg; bioavailability [9]: 20%; AUC [10]: 0.74 µM·h; clearance [11]: 60 mL/min/kg; half-life [12]: 1.52 h; Cmax [13]: 223 nM; Tmax [15]: 1.9 h; concentration at 5 h [16]: 1180 nM; half-life [17]: > 2 h
CCN(c1cc2oc(-c3ccc(F)cc3)c(C(=O)NC)c2cc1-c1cccc(C(=O)NC2(c3ncccn3)CC2)c1)S(C)(=O)=O	> 8.6	–	13	< 1.5	Stability [1]: 91%; half-life [12]: > 2 h; Stability [2]: 100%; half-life [17]: 0.817 h
CCN(c1cc2oc(-c3ccc(F)cc3)c(C(=O)NC)c2cc1-c1cc(Cl)c(OC)c(C(=O)NC2(c3ncccn3)CC2)c1)S(C)(=O)=O	2.2	82.1	11.4	5.2	concentration at 5 h [18]: 277 nM; half-life [12]: 0.232 h; concentration at 5 h [16]: 7180 nM; half-life [17]: 0.433 h
CCN(C(C)=O)c1cc2oc(-c3ccc(F)cc3)c(C(=O)NC)c2cc1-c1ccc(OC)c(C(=O)NC2(c3ncccn3)CC2)c1	> 20.5	46.6	30.8	< 1.5	–
CCN(C(=O)N(C)C)c1cc2oc(-c3ccc(F)cc3)c(C(=O)NC)c2cc1-c1ccc(OC)c(C(=O)NC2(c3ncccn3)CC2)c1	24.1	57.5	47.9	2	–
CNC(=O)c1c(-c2ccc(F)cc2)oc2ccc(-c3cccc(C(=O)NC4(c5ccccn5)CC4)c3)cc12	–	–	–	–	Stability [1]: 54%; Stability [2]: 91%
